# Experimental data from patent publication US6737383B1, “Herbicidal oxadiazolidines” (priority 1999, dated 2004).
# What was measured:
# Settings in all cases: Preemergence
# rape = assay: Test B pre/postemergence rape; type: in vivo, Brassica napus
# Outline: (§1)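 Herbicidal effect was estimated by eye on a ten-point control scale after plants spent twelve to sixteen days in a greenhouse following soil or foliar treatment. Foliar sprays targeted plants at one to four leaves; all doses were formulated in a non-phytotoxic solvent with surfactant.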
# wild oat = assay: Test B pre/postemergence wild oat; type: in vivo, Avena fatua
# Outline: as §1
# cocklebur = assay: Test B pre/postemergence cocklebur; type: in vivo, Xanthium strumarium
# Outline: as §1
# giant foxtail = assay: Test B pre/postemergence giant foxtail; type: in vivo, Setaria faberii
# Outline: as §1
# bedstraw = assay: Test B pre/postemergence bedstraw; type: in vivo, Galium aparine
# Outline: as §1
# blackgrass = assay: Test B pre/postemergence blackgrass; type: in vivo, Alopecurus myosuroides
# Outline: as §1
# soybean = assay: Test B pre/postemergence soybean; type: in vivo, Glycine max
# Outline: as §1
# wheat = assay: Test B pre/postemergence wheat; type: in vivo, Triticum aestivum
# Outline: as §1
# purple nutsedge = assay: Test B pre/postemergence purple nutsedge; type: in vivo, Cyperus rotundus
# Outline: as §1
# pigweed = assay: Test B pre/postemergence pigweed; type: in vivo, Amaranthus retroflexus
# Outline: as §1
# crabgrass = assay: Test B pre/postemergence crabgrass; type: in vivo, Digitaria sanguinalis
# Outline: as §1
# morningglory = assay: Test B pre/postemergence morningglory; type: in vivo, Ipomoea hederacea
# Outline: as §1
# surinam grass = assay: Test B pre/postemergence surinam grass; type: in vivo, Brachiaria decumbens
# Outline: as §1
# velvetleaf = assay: Test B pre/postemergence velvetleaf; type: in vivo, Abutilon theophrasti
# Outline: as §1
# corn = assay: Test B pre/postemergence corn; type: in vivo, Zea mays
# Outline: as §1
# sugar beet = assay: Test B pre/postemergence sugar beet; type: in vivo, Beta vulgaris
# Outline: as §1
# [1] = Rate 62 g/ha, scale of 0 to 10 where 0 is no effect and 10 is complete control
# [2] = Rate 125 g/ha, scale of 0 to 10 where 0 is no effect and 10 is complete control
# [3] = Rate 250 g/ha, scale 0 (no effect) to 10 (complete control)
# [4] = Rate 500 g/ha, scale 0 to 10 (0 no effect, 10 complete control)
smiles,measurement,setting,value
CC(C)N(C(=O)n1oc(=O)n(C(C)C2CCC2)c1=O)c1ccc(F)cc1 (centres unmarked) [Compound 718],Rape plant response rating,rape; [1],0
same,"Plant response rating, Rape",rape; [2],0
same,Rape plant response rating,rape; [3],2
same,Rape plant response rating,rape; [4],3
same,Wild oats plant response rating,wild oat; [1],2
same,"Plant response rating, Wild oats",wild oat; [2],2
same,Wild oats plant response rating,wild oat; [4],8
same,Cocklebur plant response rating,cocklebur; [1],0
same,"Plant response rating, Cocklebur",cocklebur; [2],0
same,Cocklebur plant response rating,cocklebur; [3],0
same,Cocklebur plant response rating,cocklebur; [4],0
same,Giant foxtail plant response rating,giant foxtail; [1],10
same,"Plant response rating, Giant foxtail",giant foxtail; [2],10
same,Giant foxtail plant response rating,giant foxtail; [3],10
same,Giant foxtail plant response rating,giant foxtail; [4],10
same,Bedstraw plant response rating,bedstraw; [1],0
same,"Plant response rating, Bedstraw",bedstraw; [2],0
same,Bedstraw plant response rating,bedstraw; [3],0
same,Bedstraw plant response rating,bedstraw; [4],0
same,Blackgrass plant response rating,blackgrass; [1],8
same,"Plant response rating, Blackgrass",blackgrass; [2],9
same,Blackgrass plant response rating,blackgrass; [3],9
same,Blackgrass plant response rating,blackgrass; [4],10
same,Soybean plant response rating,soybean; [1],0
same,"Plant response rating, Soybean",soybean; [2],0
same,Soybean plant response rating,soybean; [3],0
same,Soybean plant response rating,soybean; [4],0
same,Wheat plant response rating,wheat; [1],0
same,"Plant response rating, Wheat",wheat; [2],0
same,Wheat plant response rating,wheat; [3],0
same,Wheat plant response rating,wheat; [4],2
same,Nutsedge plant response rating,purple nutsedge; [1],0
same,Nutsedge plant response rating,purple nutsedge; [3],0
same,Nutsedge plant response rating,purple nutsedge; [4],0
same,Redroot pigweed plant response rating,pigweed; [1],0
same,"Plant response rating, Redroot pigweed",pigweed; [2],4
same,Redroot pigweed plant response rating,pigweed; [3],6
same,Redroot pigweed plant response rating,pigweed; [4],8
same,Crabgrass plant response rating,crabgrass; [1],9
same,"Plant response rating, Crabgrass",crabgrass; [2],10
same,Crabgrass plant response rating,crabgrass; [3],10
same,Crabgrass plant response rating,crabgrass; [4],10
same,Morningglory plant response rating,morningglory; [1],0
same,"Plant response rating, Morningglory",morningglory; [2],0
same,Morningglory plant response rating,morningglory; [3],0
same,Morningglory plant response rating,morningglory; [4],0
same,B. signalgrass plant response rating,surinam grass; [1],0
same,"Plant response rating, B. signalgrass",surinam grass; [2],2
same,B. signalgrass plant response rating,surinam grass; [3],7
same,B. signalgrass plant response rating,surinam grass; [4],9
same,Velvetleaf plant response rating,velvetleaf; [1],0
same,"Plant response rating, Velvetleaf",velvetleaf; [2],0
same,Velvetleaf plant response rating,velvetleaf; [3],0
same,Velvetleaf plant response rating,velvetleaf; [4],0
same,Corn plant response rating,corn; [1],0
same,"Plant response rating, Corn",corn; [2],0
same,Corn plant response rating,corn; [3],0
same,Corn plant response rating,corn; [4],3
same,Sugarbeets plant response rating,sugar beet; [1],0
same,"Plant response rating, Sugarbeets",sugar beet; [2],0
same,Sugarbeets plant response rating,sugar beet; [3],2
same,Sugarbeets plant response rating,sugar beet; [4],2
